US12467038B2, “Methods of culturing human pluripotent cells” (Hadasit Medical Research Services and Development Ltd., priority 2019, dated 2025)

How the values were obtained:
Type in all cases: cell-based, human
[1] = system: LN-hPSCs; test: Signaling pathways analysis, phase-contrast colony morphology
Method: (§1) Signaling pathways analysis—hPSCs were cultured on LN111 for 2 days in complete medium, and then for additional 3-5 days in a medium+/−FGF2 in the presence of the following small molecules: PD032590 1 μM (Peprotech), LY294002 10 μM, SB431542 10 μM, CHIR99021 3 μM (all from Cayman Chemical, Michigan, USA), XAV939 2.5 μM (Peprotech), BMP4 50 ng/ml (Biogems-Peprotech).
(§2) Signaling pathways analysis-hPSCs were cultured on LN111 for 2 days in complete medium, and then for additional 3-5 days in a medium+/−FGF2 in the presence of the following small molecules: PD032590 1 μM (Peprotech), LY294002 10 μM, SB431542 10 μM, CHIR99021 3 μM (all from Cayman Chemical, Michigan, USA), XAV939 2.5 μM (Peprotech), BMP4 50 ng/ml (Biogems-Peprotech).

[2] = system: LN-hPSCs; test: Signaling pathways analysis, Real-Time PCR of marker expression
Method: as §1
(§3) Real Time PCR analysis—A relative gene expression quantitation assay was performed by amplification of 50 ng cDNA by Real Time PCR, using ABI Prism 7900HT Sequence Detection System (Applied Biosystems (ABI), Foster City, Calif.), specific TaqMan® Gene Expression Assays and TaqMan Fast Universal PCR master Mix. Human β-glucuronidase (gusB) or human β-actin (actB) were used as endogenous gene references. Data was analyzed using the RQ Manager Software v1.2 (ABI). For global expression analysis of pluripotency and differentiation associated genes, 200 ng cDNA were subjected to Real Time PCR amplification using Applied Biosystems® TaqMan® Human Stem Cell Pluripotency Array (Cat. No. 4385344), and Taqman Gene Expression Master Mix. Array data was analyzed using the DataAssist Software v2.0 (ABI).
as §2
as §3, with “of 25-50” for “of 50”, “by Real-Time” for “by Real Time”, “and TaqMan®” for “and TaqMan”, “PCR Master Mix (All from Invitrogen).” for “PCR master Mix.”, “to Real-time” for “to Real Time”

[3] = system: LN-hPSCs; test: Immunofluorescence staining after WNT activation; conditions: upon WNT activation with CHIR
Method: as §1
Immunofluorescence staining: 4-6 day hESC colonies were fixed with 4% paraformaldehyde for 20 min at RT, permeabilized and blocked with 0.2% Triton X100 (Sigma-Aldrich), 5% normal goat/donkey serum (Biological industries, Beit Haemek, Israel) in PBS for 45 min, and incubated 1 hour at RT with the following primary antibodies: mouse IgG2b anti-human Oct4 (1:50; Cat. No. SC5279, Santa Cruz Biotechnology Inc., USA), goat polyclonal IgG anti-human FGF5 (1:250; Cat. No. AF-237-NA, R&D Systems, Minneapolis, Minn., USA), Rabbit polyclonal IgG anti-GFP (1:250; Cat. No. A11122, Invitrogen), goat polyclonal IgG anti-Brachyury (1:150; Cat. No. AF-2085, R&D Systems), and goat polyclonal IgG anti-human OTX2 (1:50; Cat. No. AF-1979, R&D Systems). […]

[4] = system: LN-hPSCs; test: FACS analysis of pluripotency cell-surface markers; conditions: basic medium supplemented with FGF2, XAV939 2.5 μM
Method: Signaling pathways analysis—hPSCs were cultured on LN111 for 2 days in complete medium, and then for additional 3-5 days in a medium+/−FGF2 in the presence of the following small molecules: PD032590 1 μM (Peprotech), LY294002 10 μM, SB431542 10 μM, CHIR99021 3 μM (all from Cayman Chemical, Michigan, USA), XAV939 2.5 μM (Peprotech), BMP4 50 ng/ml (Biogems-Peprotech). FACS analysis—FACS analyses were performed using the following primary antibodies: mouse IgM anti-TRA-1-60 (1:100; mab4360, R&D), and mouse IgM anti-TRA-1-81 (1:100; mab4381, R&D), and Rat IgM anti-SSEA-3. Staining with respective isotype control antibodies (all from eBiosciences) served as controls. Detection of primary antibodies was performed using the following secondary antibodies: FITC-conjugated Polyclonal Goat Anti-Mouse Immunoglobulins (1:100; Dako, Glostrup, Denmark), APC-conjugated Goat anti-Mouse IgM/G (1:200; Cat. No. 1020-11, SouthernBiotech, Birmingham, Ala., USA), and APC-conjugated anti-Rat (1:200; eBioscience). FACS analysis was performed on a FACScalibur system (Becton-Dickinson, San Jose, Calif.) using the Cellquest software. A detailed FACS procedure is described elsewhere. FACS analysis—FACS analyses for pluripotency marker expression were performed using mouse anti-TRA-1-60 (1:100; mab4360, R&D), and mouse anti-TRA-1-81 (1:100; mab4381, R&D). […]

[5] = system: hPSCs; test: Undifferentiated propagation and PGC differentiation of hPSCs on laminin; conditions: HES-1 hPSCs
Method: LN-hPSCs were cultured on mouse LN111, 3-D Culture Matrix Laminin I (CULTREX, TREVIGEN, #3446-005-01, Gaithersburg, Md., USA). 0.175 ml diluted LN111 (1:14 to a coating concentration of 0.43 mg/ml) was used to coat a well of a 6-well culture dish, leaving a margin of 2-3 mm at the well edge (a final concentration of ˜8 microgram/cm^2). The coated dishes were incubated from 4 hours to 4 days, at 37° C., and washed with PBS before use. LN-hPSCs were cultured in a medium composed of DMEM/F12, B27 supplement (1:50), N2 supplement (1:100), 2 mM L-glutamine, 50 units/ml penicillin, 50 μg/ml streptomycin (all from Invitrogen), and supplemented daily with 20 ng/ml FGF2 (Peprotech). Cells were passaged every 5-6 days using 1.5 mg/ml collagenase type IV (Invitrogen). 5 μM ROCK inhibitor (Y-27632, Peprotech) was added for the first day after passaging.
hPSCs were cultured on human recombinant LN521 (BIOLAMINA, Sundbyberg, Sweden). Coating of culture dishes with hrLN521 was performed according to the manufacturer's instructions (Coating concentration ˜0.45 microgram/cm^2). Cells were cultured in the same medium used for culturing LN-hPSCs, and passaged with collagenase type IV.
PGC differentiation of hPSCs in suspension—LN-hPSCs and hPSCs cultured on hrLN-521 were dissociated into a single-cell suspension using TrypLE Select Enzyme (Invitrogen). Primed hPSCs were first dissociated from the MEF feeders by treatment with collagenase type IV, followed by dissociation into single cells by TrypLE Select Enzyme. 2000-3000 cells were seeded into a microwell of AggreWell™800 24-well plate (STEMCELL Technologies), and cultured as EBs in suspension, in PGCLC differentiation medium as described elsewhere (Irie et al., 2015).

[6] = medium depleted for FGF2, in the presence of the inhibitor, five days

With Cc1c[nH]c(-c2cnc(NCCNc3ccc(C#N)cn3)nc2-c2ccc(Cl)cc2Cl)n1 [CHIR, CHIR99021] the LN-hPSC colony morphology ([1]; 3 days in the presence of CHIR) was “appeared differentiated”, the “expression of PS and mesendodermal markers T, SOX17, and GSC” value ([2]; 3 days in the presence of CHIR) was “up-regulation” and the “expression of core pluripotency TFs Oct4, Nanog and SOX2 as well as OTX2” value ([2]; 3 days in the presence of CHIR) was “down-regulation”. The “expression of early ecdodermal marker PAX6” value ([2]; 3 days in the presence of CHIR) was “down-regulated” and the “T-positive cells (immunostaining)” value [3] was “expressed in the majority of the cells”.

With O=C(NOC[C@H](O)CO)c1ccc(F)c(F)c1Nc1ccc(I)cc1F [PD032590] the “differentiation as evidenced by changes in cell morphology” value [1, 6] was “Differentiation was observed” and the “Oct4 and Nanog expression levels” value [2, 6] was “significant down-regulation”.

In the case of NC(=O)c1ccc(-c2nc(-c3ccc4c(c3)OCO4)c(-c3ccccn3)[nH]2)cc1 [SB431542], the colony morphology ([1]; FGF2 depleted from the medium) is reported as “the colonies including the margins differentiated”, the colony morphology ([1]; medium containing FGF2, 5 d) is reported as “appeared differentiated” and the “Oct4 and Nanog expression levels” value ([2]; FGF2 depleted from the medium) is reported as “strongly reduced”. The Nanog expression ([2]; medium containing FGF2, 5 d) was “drastically reduced” and the Oct4 levels ([2]; medium containing FGF2, 5 d) was “moderately down-regulated”.

For Oc1nc(-c2ccc(C(F)(F)F)cc2)nc2c1CSCC2 [XAV939], the LN-hPSC colonies morphology ([1]; basic medium supplemented with FGF2, XAV939 2.5 μM) was “did not affect” and the “percentages of cells expressing TRA-1-60” value [4] was “did not affect”.

For “BMP4: BMP4 50 ng/ml (Biogems-Peprotech), conserved role in germ cell specification”, the “expression of early PGC TFs PRDM1 (BLIMP1) and TFAP2C” value ([2]; BMP4 treatment) was “induced the expression” and the “expression of formative pluripotency TFs OTX2 and FOXD3” value ([2]; BMP4 treatment) was “down-regulation”.

With “hrLN521: human recombinant LN521 (BIOLAMINA), coating of culture dishes” the “competence to initiate germ cell specification” value [5] was “competent to initiate germ cell specification” and the “undifferentiated propagation of hPSCs expressing markers of pluripotency and early post-implantation epiblast” value [5] was “supports the undifferentiated propagation”.
